From US12539292B2, “BRM targeting compounds and associated methods of use” (Arvinas Operations, Inc., priority 2018, dated 2026) come the findings set out here.

Read-outs that look alike come from different tables or passages of the source.

For the test, the target named is T1, BRM (Homo sapiens, UniProt P51531).
T1 construct: In-Cell Western Screen of BRM Degradation in SW1573 Cells; endogenous in cells; host or cells: SW1573
Briefly: In-cell Western screen of BRM degradation in SW1573 cells (Dmax and DC50). Format: cell-based. A digest of the protocol:
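Overnight compound treatment (18-20 h, final DMSO 0.1%) of SW1573 cells in DMEM with 10% FBS precedes fixation and in-cell Western staining with 800/680 nm dye-labelled secondaries. Plate images give DC50 and maximal degradation.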

Where [1] appears, read: BRM degradation, SW1573 cells, read-out: DC50.
Where [2] appears, read: SW1573, % degraded, when tested at the top concentration of between 0.3 and 10 μM, read-out: BRM Dmax (%).
Where [3] appears, read: target protein degradation, read-out: BRM DC50.
[4] abbreviates: BRM degradation, SW1573 cells, Table 2D, read-out: **Dmax (%) (% degraded).
Setting [5] is: BRM degradation, SW1573 cells, Table 2D, read-out: *DC50.

T1 sequence (P51531 whole entry): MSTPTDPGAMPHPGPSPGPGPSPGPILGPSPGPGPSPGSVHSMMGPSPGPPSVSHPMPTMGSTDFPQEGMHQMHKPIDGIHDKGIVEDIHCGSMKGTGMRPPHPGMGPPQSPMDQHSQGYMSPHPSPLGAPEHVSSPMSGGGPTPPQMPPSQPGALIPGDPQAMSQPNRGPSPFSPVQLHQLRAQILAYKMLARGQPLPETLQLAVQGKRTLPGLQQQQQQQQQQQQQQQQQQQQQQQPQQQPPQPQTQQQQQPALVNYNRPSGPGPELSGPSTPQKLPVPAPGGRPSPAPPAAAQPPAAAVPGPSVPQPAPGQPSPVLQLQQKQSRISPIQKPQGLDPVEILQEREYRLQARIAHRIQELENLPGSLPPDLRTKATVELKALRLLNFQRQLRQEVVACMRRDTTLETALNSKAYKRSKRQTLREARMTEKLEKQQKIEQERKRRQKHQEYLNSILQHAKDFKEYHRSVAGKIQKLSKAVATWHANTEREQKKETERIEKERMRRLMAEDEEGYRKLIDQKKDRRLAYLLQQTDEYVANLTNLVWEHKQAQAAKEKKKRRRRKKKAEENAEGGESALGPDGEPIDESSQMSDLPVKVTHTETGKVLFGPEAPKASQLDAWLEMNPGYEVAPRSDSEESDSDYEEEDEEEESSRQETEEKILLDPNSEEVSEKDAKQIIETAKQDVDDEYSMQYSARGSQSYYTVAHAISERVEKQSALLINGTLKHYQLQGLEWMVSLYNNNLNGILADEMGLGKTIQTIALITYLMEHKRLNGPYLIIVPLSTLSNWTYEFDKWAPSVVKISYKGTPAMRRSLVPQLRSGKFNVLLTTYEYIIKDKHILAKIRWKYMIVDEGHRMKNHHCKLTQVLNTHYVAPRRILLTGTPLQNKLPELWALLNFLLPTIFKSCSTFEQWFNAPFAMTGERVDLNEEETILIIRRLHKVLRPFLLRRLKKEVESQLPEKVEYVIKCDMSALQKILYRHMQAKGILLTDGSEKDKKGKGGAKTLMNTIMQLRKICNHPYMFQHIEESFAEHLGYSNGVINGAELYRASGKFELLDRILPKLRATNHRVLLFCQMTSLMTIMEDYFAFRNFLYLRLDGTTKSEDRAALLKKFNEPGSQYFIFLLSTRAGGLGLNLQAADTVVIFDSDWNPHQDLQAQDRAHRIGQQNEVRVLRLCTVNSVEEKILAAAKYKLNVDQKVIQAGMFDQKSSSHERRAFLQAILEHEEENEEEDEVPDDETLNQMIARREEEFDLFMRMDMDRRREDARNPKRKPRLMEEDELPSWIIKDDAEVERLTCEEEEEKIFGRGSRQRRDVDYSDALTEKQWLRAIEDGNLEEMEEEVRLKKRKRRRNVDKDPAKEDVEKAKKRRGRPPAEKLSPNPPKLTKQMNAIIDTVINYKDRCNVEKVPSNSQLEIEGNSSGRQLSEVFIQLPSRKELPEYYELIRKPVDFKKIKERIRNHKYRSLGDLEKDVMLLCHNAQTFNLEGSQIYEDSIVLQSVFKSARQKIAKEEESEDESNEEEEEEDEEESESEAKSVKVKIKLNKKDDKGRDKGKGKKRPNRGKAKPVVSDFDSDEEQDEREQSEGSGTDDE

As usually defined, the DC50 is the midpoint of the concentration-degradation curve. On to `Cc1ncsc1-c1ccc([C@H](C)NC(=O)[C@@H]2C[C@@H](O)CN2C(=O)[C@H](c2cc(OCCC3CCN(C[C@H]4C[C@H](Oc5cc(N6C7CCC6CN(c6cc(-c8ccccc8O)nnc6N)C7)ccn5)C4)CC3)no2)C(C)C)cn1` [compound 287, (2S,4R)-1-((2S)-2-(3-(2-(1-(((1r,3S)-3-((4-(3-(3-amino-6-(2-hydroxyphenyl)pyridazin-4-yl)-3,8-diazabicyclo[3.2.1]octan-8-yl)pyridin-2-yl)oxy)cyclobutyl)methyl)piperidin-4-yl)ethoxy)isoxazol-5-yl)-3-methylbutanoyl)-4-hydroxy-N-((S)-1-(6-(4-methylthiazol-5-yl)pyridin-3-yl)ethyl)pyrrolidine-2-carboxamide], for which the DC50 under setting [1] was above 30 nM.

A word on the Dmax: it is the greatest extent of degradation seen. In the case of `Cc1ncsc1-c1ccc([C@H](C)NC(=O)[C@@H]2C[C@@H](O)CN2C(=O)[C@H](c2cc(OCCN3CCC(OC4CN(c5cc(N6C7CCC6CN(c6cc(-c8ccccc8O)nnc6N)C7)ccn5)C4)CC3)no2)C(C)C)cc1` [compound 354, (2S,4R)-1-((2S)-2-(3-(2-(4-((1-(4-(3-(3-amino-6-(2-hydroxyphenyl)pyridazin-4-yl)-3,8-diazabicyclo[3.2.1]octan-8-yl)pyridin-2-yl)azetidin-3-yl)oxy)piperidin-1-yl)ethoxy)isoxazol-5-yl)-3-methylbutanoyl)-4-hydroxy-N-((S)-1-(4-(4-methylthiazol-5-yl)phenyl)ethyl)pyrrolidine-2-carboxamide], the greatest degradation seen (Dmax) under setting [2] is above 75%. In addition, the 50% degradation concentration (DC50) under setting [3] was 2.5 to 10 nM. With `Cc1ncsc1-c1ccc([C@H](C)NC(=O)[C@@H]2C[C@@H](O)CN2C(=O)[C@H](c2cc(OCC[C@@H]3CCN(C[C@H]4C[C@H](Oc5cc(N6C7CCC6CN(c6cc(-c8ccccc8O)nnc6N)C7)ccn5)C4)[C@@H](C)C3)no2)C(C)C)cc1` (racemic) [compound 581, (2S,4R)-1-((2S)-2-(3-(2-((2S,4R)-1-(((1r,3S)-3-((4-(3-(3-amino-6-(2-hydroxyphenyl)pyridazin-4-yl)-3,8-diazabicyclo[3.2.1]octan-8-yl)pyridin-2-yl)oxy)cyclobutyl)methyl)-2-methylpiperidin-4-yl)ethoxy)isoxazol-5-yl)-3-methylbutanoyl)-4-hydroxy-N-((S)-1-(4-(4-methylthiazol-5-yl)phenyl)ethyl)pyrrolidine-2-carboxamide], the Dmax under setting [4] was above 75%. The 50% degradation concentration (DC50) under setting [5] was below 2.5 nM. As to `COc1cc(-c2scnc2C)ccc1CNC(=O)[C@@H]1C[C@@H](O)CN1C(=O)[C@H](c1cc(OCCN2CCC(O[C@H]3C[C@H](Oc4cc(N5C6CCC5CN(c5cc(-c7ccccc7O)nnc5N)C6)ccn4)C3)CC2)no1)C(C)C` [compound 214, (2S,4R)-1-((2S)-2-(3-(2-(4-((1r,3S)-3-((4-(3-(3-amino-6-(2-hydroxyphenyl)pyridazin-4-yl)-3,8-diazabicyclo[3.2.1]octan-8-yl)pyridin-2-yl)oxy)cyclobutoxy)piperidin-1-yl)ethoxy)isoxazol-5-yl)-3-methylbutanoyl)-4-hydroxy-N-(2-methoxy-4-(4-methylthiazol-5-yl)benzyl)pyrrolidine-2-carboxamide], the 50% degradation concentration (DC50) under setting [1] was above 30 nM.

For `Cc1ncsc1-c1ccc([C@H](C)NC(=O)[C@@H]2C[C@@H](O)CN2C(=O)[C@@H](c2cc(OCCC3CCN(C(=O)[C@H]4C[C@H](CN5CCC([C@@H](C)n6cc(-c7cc(-c8ccccc8O)nnc7N)cn6)CC5)C4)CC3)no2)C(C)C)cc1` [compound 456, (2S,4R)-1-((R)-2-(3-(2-(1-((1R,3R)-3-((4-((R)-1-(4-(3-amino-6-(2-hydroxyphenyl)pyridazin-4-yl)-1H-pyrazol-1-yl)ethyl)piperidin-1-yl)methyl)cyclobutane-1-carbonyl)piperidin-4-yl)ethoxy)isoxazol-5-yl)-3-methylbutanoyl)-4-hydroxy-N-((S)-1-(4-(4-methylthiazol-5-yl)phenyl)ethyl)pyrrolidine-2-carboxamide], the DC50 under setting [3] is above 30 nM. On to `Cc1ncsc1-c1ccc([C@H](C)NC(=O)[C@@H]2C[C@@H](O)CN2C(=O)[C@@H](c2cc(OCCC3CCN(C(=O)[C@H]4C[C@H](Oc5cc(N6C7CCC6CN(c6cc(-c8ccccc8O)nnc6N)C7)ccn5)C4)CC3)no2)C(C)C)cn1` [compound 261, (2S,4R)-1-((2R)-2-(3-(2-(1-((1r,3R)-3-((4-(3-(3-amino-6-(2-hydroxyphenyl)pyridazin-4-yl)-3,8-diazabicyclo[3.2.1]octan-8-yl)pyridin-2-yl)oxy)cyclobutane-1-carbonyl)piperidin-4-yl)ethoxy)isoxazol-5-yl)-3-methylbutanoyl)-4-hydroxy-N-((S)-1-(6-(4-methylthiazol-5-yl)pyridin-3-yl)ethyl)pyrrolidine-2-carboxamide], for which the DC50 under setting [1] is below 2.5 nM. Under “BRM degradation, SW1573 cells, tested at the top concentration of between 0.3 and 10 μM, read-out: Dmax (%) (% degraded)”, the Dmax was above 75%. As to `Cc1ncsc1-c1ccc([C@H](C)NC(=O)[C@@H]2C[C@@H](O)CN2C(=O)[C@H](c2cc(OCCN3CCC(O[C@H]4C[C@H](Oc5nccc(N6C7CCC6CN(c6cc(-c8ccccc8O)nnc6N)C7)n5)C4)CC3)no2)C(C)C)cc1` [compound 463, (2S,4R)-1-((2S)-2-(3-(2-(4-((1r,3S)-3-((4-(3-(3-amino-6-(2-hydroxyphenyl)pyridazin-4-yl)-3,8-diazabicyclo[3.2.1]octan-8-yl)pyrimidin-2-yl)oxy)cyclobutoxy)piperidin-1-yl)ethoxy)isoxazol-5-yl)-3-methylbutanoyl)-4-hydroxy-N-((S)-1-(4-(4-methylthiazol-5-yl)phenyl)ethyl)pyrrolidine-2-carboxamide], the DC50 under setting [3] was above 30 nM. For the molecule `Cc1ncsc1-c1ccc([C@@H](CN)NC(=O)[C@@H]2C[C@@H](O)CN2C(=O)[C@H](c2cc(OCCN3CCN(CCOc4cc(N5C6CCC5CN(c5cc(-c7ccccc7O)nnc5N)C6)ccn4)CC3)no2)C(C)C)cc1` [compound 255, (2S,4R)-N-((S)-2-amino-1-(4-(4-methylthiazol-5-yl)phenyl)ethyl)-1-((2S)-2-(3-(2-(4-(2-((4-(3-(3-amino-6-(2-hydroxyphenyl)pyridazin-4-yl)-3,8-diazabicyclo[3.2.1]octan-8-yl)pyridin-2-yl)oxy)ethyl)piperazin-1-yl)ethoxy)isoxazol-5-yl)-3-methylbutanoyl)-4-hydroxypyrrolidine-2-carboxamide], the DC50 under setting [1] is above 30 nM.

As for `Cc1ncsc1-c1ccc(CNC(=O)[C@@H]2C[C@@H](O)CN2C(=O)[C@@H](NC(=O)COCCOCCOCCOCCOCCn2cc(-c3cc(-c4ccccc4O)nnc3N)cn2)C(C)(C)C)cc1` [compound 4, (2S,4R)-1-((S)-20-(4-(3-amino-6-(2-hydroxyphenyl)pyridazin-4-yl)-1H-pyrazol-1-yl)-2-(tert-butyl)-4-oxo-6,9,12,15,18-pentaoxa-3-azaicosanoyl)-4-hydroxy-N-(4-(4-methylthiazol-5-yl)benzyl)pyrrolidine-2-carboxamide], under setting [1], the DC50 is above 30 nM. Further, the maximal degradation (Dmax) (BRM degradation, SW1573 cells, when tested at the top concentration of between 0.3 and 10 μM, read-out: Dmax (%) (% degraded)) was above 75%. With `CC(C)[C@H](C(=O)N1C[C@H](O)C[C@H]1C(=O)N[C@@H](C)c1ccc(C(F)(F)F)cc1)c1cc(OCCN2CCC(O[C@H]3C[C@H](Oc4cc(N5C6CCC5CN(c5cc(-c7ccccc7O)nnc5N)C6)ccn4)C3)CC2)no1` [compound 247, (2S,4R)-1-((2S)-2-(3-(2-(4-((1r,3S)-3-((4-(3-(3-amino-6-(2-hydroxyphenyl)pyridazin-4-yl)-3,8-diazabicyclo[3.2.1]octan-8-yl)pyridin-2-yl)oxy)cyclobutoxy)piperidin-1-yl)ethoxy)isoxazol-5-yl)-3-methylbutanoyl)-4-hydroxy-N-((S)-1-(4-(trifluoromethyl)phenyl)ethyl) pyrrolidine-2-carboxamide], under setting [1], the DC50 was above 30 nM. As for `Cc1nccn1-c1ccc([C@H](C)NC(=O)[C@@H]2C[C@@H](O)CN2C(=O)[C@@H](c2cc(N3CCN(CCN4CCC(O[C@H]5C[C@H](Oc6cc(N7C8CCC7CN(c7cc(-c9ccccc9O)nnc7N)C8)ccn6)C5)CC4)CC3)no2)C(C)C)cc1` [compound 413, (2S,4R)-1-((2R)-2-(3-(4-(2-(4-((1r,3r)-3-((4-(3-(3-amino-6-(2-hydroxyphenyl)pyridazin-4-yl)-3,8-diazabicyclo[3.2.1]octan-8-yl)pyridin-2-yl)oxy)cyclobutoxy)piperidin-1-yl)ethyl)piperazin-1-yl)isoxazol-5-yl)-3-methylbutanoyl)-4-hydroxy-N-((S)-1-(4-(2-methyl-1H-imidazol-1-yl)phenyl)ethyl)pyrrolidine-2-carboxamide], the Dmax under setting [2] was above 75%. The 50% degradation concentration (DC50) (degradation of BRM, read-out: BRM DC50) is below 2.5 nM. Consider `Cc1ncsc1-c1ccc([C@H](C)NC(=O)[C@@H]2C[C@@H](O)CN2C(=O)[C@H](c2cc(OCCC3CCN(C(=O)[C@H]4C[C@H](CN5CCC([C@@H](C)n6cc(-c7cc(-c8ccccc8O)nnc7N)cn6)CC5)C4)CC3)no2)C(C)C)cc1` [compound 455, (2S,4R)-1-((S)-2-(3-(2-(1-((1R,3S)-3-((4-((R)-1-(4-(3-amino-6-(2-hydroxyphenyl)pyridazin-4-yl)-1H-pyrazol-1-yl)ethyl)piperidin-1-yl)methyl)cyclobutane-1-carbonyl)piperidin-4-yl)ethoxy)isoxazol-5-yl)-3-methylbutanoyl)-4-hydroxy-N-((S)-1-(4-(4-methylthiazol-5-yl)phenyl)ethyl)pyrrolidine-2-carboxamide], for which the Dmax under setting [2] is above 75%. Under setting [3], the DC50 was below 2.5 nM. As to `Cc1ncsc1-c1ccc([C@H](C)NC(=O)[C@@H]2C[C@@H](O)CN2C(=O)[C@H](c2cc(OCC[C@H]3CCN(C[C@H]4C[C@H](Oc5cc(N6C7CCC6CN(c6cc(-c8ccccc8O)nnc6N)C7)ccn5)C4)[C@@H](C)[C@H]3C)no2)C(C)C)cc1` (single isomer, unassigned) [compound 585], under setting [4], the Dmax was above 75%. For the same molecule, under setting [5], the 50% degradation concentration (DC50) is 2.5 to 10 nM.
